From ChEMBL document CHEMBL3885861, “Open TG-GATES”

Species: Rattus norvegicus
Experiment: Open TG-GATES - Regimen: Single
Format: toxicity, organism-based, Sprague-Dawley
Parameters: regimen Single, gender Male, age 6 weeks
Conditions: in vivo, po, 1000 mg/kg, route gavage, dose level High; for APTT / Bas / Eos / Fbg / Hb / Ht / Lym / MCH / MCHC / MCV / Mono / Neu / PT / Plat / RBC / Ret / WBC: tissue Blood; for KIDNEY_L / KIDNEY_R / KIDNEY_TOTAL: tissue Kidney; for LIVER: tissue Liver; for A/G / ALP / ALT / AST / BUN / CRE / Ca / Cl / DBIL / GLC / IP / K / LDH / Na / PL / RALB / TBIL / TC / TG / TP / gamma-GTP: tissue Plasma

O=C(O)c1cc(/N=N/c2ccc(S(=O)(=O)Nc3ccccn3)cc2)ccc1O [SULFASALAZINE]
TERMINAL_BW (3 h): 210.6 g | APTT (3 h): 19.5 s | Bas (3 h): 0% | Eos (3 h): 1% | Fbg (3 h): 221.8 mg/dL | Hb (3 h): 13.4 g/dL | Ht (3 h): 39.6% | Lym (3 h): 72.2% | MCH (3 h): 21.2 pg | MCHC (3 h): 33.9% | MCV (3 h): 62.4 fL | Mono (3 h): 2.8% | Neu (3 h): 23.2% | PT (3 h): 12.7 s | Plat (3 h): 116.4 x10_4/uL | RBC (3 h): 633.8 x10_4/ul | Ret (3 h): 7% | WBC (3 h): 94.9 x10_2/uL | KIDNEY_L (3 h): 1 g | KIDNEY_R (3 h): 1 g | KIDNEY_TOTAL (3 h): 1.9 g | LIVER (3 h): 9.7 g | A/G (3 h): 1.5 | ALP (3 h): 1059.6 IU/L | ALT (3 h): 39.4 IU/L | AST (3 h): 67.8 IU/L | BUN (3 h): 11.4 mg/dL | CRE (3 h): 0.4 mg/dL | Ca (3 h): 10.7 mg/dL | Cl (3 h): 102.4 meq/L | DBIL (3 h): 0.064 mg/dL | GLC (3 h): 196.6 mg/dL | IP (3 h): 9.4 mg/dL | K (3 h): 4 meq/L | LDH (3 h): 203.6 IU/L | Na (3 h): 139.6 meq/L | PL (3 h): 139.4 mg/dL | RALB (3 h): 3.4 g/dL | TBIL (3 h): 0.1 mg/dL | TC (3 h): 76 mg/dL | TG (3 h): 46.2 mg/dL | TP (3 h): 5.6 g/dL | gamma-GTP (3 h): 1 IU/L | TERMINAL_BW (6 h): 208.9 g | APTT (6 h): 18.8 s | Bas (6 h): 0% | Eos (6 h): 0.8% | Fbg (6 h): 226 mg/dL | Hb (6 h): 13.1 g/dL | Ht (6 h): 38.3% | Lym (6 h): 76.4% | MCH (6 h): 21.3 pg | MCHC (6 h): 34.2% | MCV (6 h): 62.2 fL | Mono (6 h): 2.2% | Neu (6 h): 19.2% | PT (6 h): 12.7 s | Plat (6 h): 120.4 x10_4/uL | RBC (6 h): 616.4 x10_4/ul | Ret (6 h): 7.3% | WBC (6 h): 73.5 x10_2/uL | KIDNEY_L (6 h): 0.9 g | KIDNEY_R (6 h): 1 g | KIDNEY_TOTAL (6 h): 1.9 g | LIVER (6 h): 9 g | A/G (6 h): 1.5 | ALP (6 h): 928.2 IU/L | ALT (6 h): 31.4 IU/L | AST (6 h): 66.4 IU/L | BUN (6 h): 8.4 mg/dL | CRE (6 h): 0.4 mg/dL | Ca (6 h): 10.5 mg/dL | Cl (6 h): 103.2 meq/L | DBIL (6 h): 0.066 mg/dL | GLC (6 h): 190.8 mg/dL | IP (6 h): 9.4 mg/dL | K (6 h): 4 meq/L | LDH (6 h): 207.8 IU/L | Na (6 h): 141.4 meq/L | PL (6 h): 144 mg/dL | RALB (6 h): 3.4 g/dL | TBIL (6 h): 0.1 mg/dL | TC (6 h): 75.4 mg/dL | TG (6 h): 59 mg/dL | TP (6 h): 5.6 g/dL | gamma-GTP (6 h): 1 IU/L | TERMINAL_BW (9 h): 206.9 g | APTT (9 h): 18.8 s | Bas (9 h): 0% | Eos (9 h): 0.8% | Fbg (9 h): 222.2 mg/dL | Hb (9 h): 13.2 g/dL | Ht (9 h): 38.4% | Lym (9 h): 72.2% | MCH (9 h): 21.9 pg | MCHC (9 h): 34.4% | MCV (9 h): 63.7 fL | Mono (9 h): 1.2% | Neu (9 h): 25.2% | PT (9 h): 12.8 s | Plat (9 h): 110.1 x10_4/uL | RBC (9 h): 603.4 x10_4/ul | Ret (9 h): 7.2% | WBC (9 h): 68.2 x10_2/uL | KIDNEY_L (9 h): 0.9 g | KIDNEY_R (9 h): 1 g | KIDNEY_TOTAL (9 h): 1.9 g | LIVER (9 h): 8 g | A/G (9 h): 1.5 | ALP (9 h): 772.2 IU/L | ALT (9 h): 31.4 IU/L | AST (9 h): 67.4 IU/L | BUN (9 h): 8.6 mg/dL | CRE (9 h): 0.4 mg/dL | Ca (9 h): 10.4 mg/dL | Cl (9 h): 103.2 meq/L | DBIL (9 h): 0.06 mg/dL | GLC (9 h): 210.6 mg/dL | IP (9 h): 8.6 mg/dL | K (9 h): 3.5 meq/L | LDH (9 h): 195.4 IU/L | Na (9 h): 141.4 meq/L | PL (9 h): 137.2 mg/dL | RALB (9 h): 3.5 g/dL | TBIL (9 h): 0.1 mg/dL | TC (9 h): 72.6 mg/dL | TG (9 h): 23 mg/dL | TP (9 h): 5.8 g/dL | gamma-GTP (9 h): 1.4 IU/L | TERMINAL_BW (24 h): 214 g | APTT (24 h): 17.5 s | Bas (24 h): 0% | Eos (24 h): 0.8% | Fbg (24 h): 216.2 mg/dL | Hb (24 h): 13.5 g/dL | Ht (24 h): 39.4% | Lym (24 h): 82.6% | MCH (24 h): 21.7 pg | MCHC (24 h): 34.4% | MCV (24 h): 63 fL | Mono (24 h): 2.4% | Neu (24 h): 13% | PT (24 h): 13.2 s | Plat (24 h): 135.4 x10_4/uL | RBC (24 h): 624 x10_4/ul | Ret (24 h): 6.2% | WBC (24 h): 85.9 x10_2/uL | KIDNEY_L (24 h): 1 g | KIDNEY_R (24 h): 1 g | KIDNEY_TOTAL (24 h): 1.9 g | LIVER (24 h): 8.6 g | A/G (24 h): 1.5 | ALP (24 h): 925.2 IU/L | ALT (24 h): 40.6 IU/L | AST (24 h): 69.8 IU/L | BUN (24 h): 13.8 mg/dL | CRE (24 h): 0.4 mg/dL | Ca (24 h): 10.7 mg/dL | Cl (24 h): 100.6 meq/L | DBIL (24 h): 0.076 mg/dL | GLC (24 h): 191 mg/dL | IP (24 h): 8.8 mg/dL | K (24 h): 3.8 meq/L | LDH (24 h): 232 IU/L | Na (24 h): 139.6 meq/L | PL (24 h): 142.4 mg/dL | RALB (24 h): 3.4 g/dL | TBIL (24 h): 0.1 mg/dL | TC (24 h): 79.8 mg/dL | TG (24 h): 52.8 mg/dL | TP (24 h): 5.7 g/dL | gamma-GTP (24 h): 1 IU/L
